ChEMBL document CHEMBL6078698, “Discovery of 6-Fluoro-5-{4-[(5-fluoro-2-methyl-3-oxo-3,4-dihydroquinoxalin-6-yl)methyl]piperazin-1-yl}-N-methylpyridine-2-carboxamide (AZD9574): A CNS-Penetrant, PARP1-Selective Inhibitor” (J Med Chem, 2024)
In brackets after ≈: the same amount, converted by molar mass.

How the values were obtained:
[1] = Inhibition of cell proliferation of human DLD-1 cells expressing BRCA2-/- incubated for 7 days by Sytox green dye based analysis; format: functional; settings: DLD-1, 168 h
MDR1 (P-gp), BCRP = test: Efflux ratio in MDCK-MDR1-BCRP cells; format: ADME, cell-based, Canis lupus familiaris; settings: dog
[2] = Ratio of unbound drug concentration in brain to plasma of rat; format: ADME, cell-free; settings: brain and plasma (unbound), read-out: K(p,uu,brain)
hERG (KCNH2) = hERG (KCNH2) (Homo sapiens, UniProt Q12809); test: (§1) Inhibition of hERG transfected in CHO cells by electrophysiology; format: toxicity, cell-based; settings: human, CHO cells transfected with hERG
[3] = Solubility of compound at pH 7.4; format: physicochemical; settings: buffer
[4] = Lipophilicity, log D of compound at pH 7.4; format: physicochemical; settings: buffer
[5] = Intrinsic clearance in human liver microsomes; format: ADME, Microsome; settings: read-out: CLH
[6] = molecular target: Poly [ADP-ribose] polymerase 1 (Homo sapiens, UniProt P09874); test: Inhibition of N-terminal 6His-tagged full-length recombinant human PARP1 by fluorescence anisotropy assay
[7] = molecular target: Poly [ADP-ribose] polymerase 2 (Homo sapiens, UniProt Q9UGN5); test: Inhibition of N-terminal 6His-tagged full-length recombinant human PARP2 by fluorescence anisotropy assay
[8] = molecular target: Voltage-gated inwardly rectifying potassium channel KCNH2 (Homo sapiens, UniProt Q12809); test: as §1; format: toxicity, cell-based
[9] = Unbound fraction in CD-1 mouse plasma at 1 mg/kg, po or 0.5 mg/kg, iv; format: ADME, organism-based; settings: in vivo
[10] = Volume of distribution at steady state in CD-1 mouse at 1 mg/kg, po or 0.5 mg/kg, iv; format: ADME, organism-based; settings: in vivo
[11] = Half life in CD-1 mouse at 1 mg/kg, po or 0.5 mg/kg, iv; format: ADME, organism-based; settings: in vivo
[12] = Oral bioavailability […] in CD-1 mouse at 1 mg/kg; format: ADME, organism-based; settings: in vivo
[13] = Unbound fraction in Han Wistar rat plasma at 1 mg/kg, po or 1 mg/kg, iv; format: ADME, organism-based; settings: in vivo
[14] = Volume of distribution at steady state in Han Wistar rat at 1 mg/kg, po or 1 mg/kg, iv; format: ADME, organism-based; settings: in vivo
[15] = Half life in Han Wistar rat at 1 mg/kg, po or 1 mg/kg, iv; format: ADME, organism-based; settings: in vivo
[16] = Oral bioavailability in Han Wistar rat at 1 mg/kg; format: ADME, organism-based; settings: in vivo
[17] = Unbound fraction in Beagle dog plasma at 1 mg/kg, po or 1 mg/kg, iv; format: ADME, organism-based, Canis lupus familiaris; settings: in vivo
[18] = Volume of distribution at steady state in Beagle dog at 1 mg/kg, po or 1 mg/kg, iv; format: ADME, organism-based, Canis lupus familiaris; settings: in vivo
[19] = Half life in Beagle dog at 1 mg/kg, po or 1 mg/kg, iv; format: ADME, organism-based, Canis lupus familiaris; settings: in vivo
[20] = Oral bioavailability in Beagle dog at 1 mg/kg; format: ADME, organism-based, Canis lupus familiaris; settings: in vivo
DLD-1 [21] = test: Antitumor activity against human DLD-1 cells expressing BRCA2-/- xenografted in mouse at 3 mg/kg administered once daily for 5 weeks relative to control; format: functional; settings: DLD-1, 840 h, read-out: TGI
DLD-1 [22] = test: Antitumor activity against human DLD-1 cells expressing BRCA2-/- xenografted in mouse at 30 mg/kg administered once daily for 5 weeks relative to control; format: functional; settings: DLD-1, 840 h, read-out: TGI
DLD-1 [23] = test: Antitumor activity against human DLD-1 cells expressing BRCA2-/- xenografted in mouse at 10 mg/kg administered once daily for 5 weeks relative to control; format: functional; settings: DLD-1, 840 h, read-out: TGI
[24] = Unbound fraction in Cynomolgous monkey plasma at 1 mg/kg, po or 0.5 mg/kg, iv; format: ADME, organism-based, Macaca fascicularis; settings: cynomolgus monkey, in vivo
[25] = Volume of distribution at steady state in Cynomolgous monkey at 1 mg/kg, po or 0.5 mg/kg, iv; format: ADME, organism-based, Macaca fascicularis; settings: cynomolgus monkey, in vivo
[26] = Half life in Cynomolgous monkey at 1 mg/kg, po or 0.5 mg/kg, iv; format: ADME, organism-based, Macaca fascicularis; settings: cynomolgus monkey, in vivo
[27] = Oral bioavailability in Cynomolgous monkey at 1 mg/kg; format: ADME, organism-based, Macaca fascicularis; settings: cynomolgus monkey, in vivo
[28] = Toxicity in mouse xenografted with human DLD-1 cells expressing BRCA2-/- assessed as drug tolerance at 3 to 30 mg/kg administered once daily for 5 weeks; format: organism-based; settings: in vivo, 840 h, dose 3-30 mg/kg
[29] = Toxicity in mouse xenografted with human DLD-1 cells expressing BRCA2-/- assessed as body weight reduction at 3 to 30 mg/kg administered once daily for 5 weeks; format: organism-based; settings: in vivo, 840 h, dose 3-30 mg/kg
DLD-1 [30] = test: Antitumor activity against human DLD-1 cells expressing BRCA2-/- xenografted in athymic nude Foxn1nu mouse at 100 mg/kg administered once daily for 28 days relative to control; format: functional; settings: DLD-1, 672 h, time 28 day, read-out: TGI

Sequence of hERG (KCNH2) (Q12809 whole entry): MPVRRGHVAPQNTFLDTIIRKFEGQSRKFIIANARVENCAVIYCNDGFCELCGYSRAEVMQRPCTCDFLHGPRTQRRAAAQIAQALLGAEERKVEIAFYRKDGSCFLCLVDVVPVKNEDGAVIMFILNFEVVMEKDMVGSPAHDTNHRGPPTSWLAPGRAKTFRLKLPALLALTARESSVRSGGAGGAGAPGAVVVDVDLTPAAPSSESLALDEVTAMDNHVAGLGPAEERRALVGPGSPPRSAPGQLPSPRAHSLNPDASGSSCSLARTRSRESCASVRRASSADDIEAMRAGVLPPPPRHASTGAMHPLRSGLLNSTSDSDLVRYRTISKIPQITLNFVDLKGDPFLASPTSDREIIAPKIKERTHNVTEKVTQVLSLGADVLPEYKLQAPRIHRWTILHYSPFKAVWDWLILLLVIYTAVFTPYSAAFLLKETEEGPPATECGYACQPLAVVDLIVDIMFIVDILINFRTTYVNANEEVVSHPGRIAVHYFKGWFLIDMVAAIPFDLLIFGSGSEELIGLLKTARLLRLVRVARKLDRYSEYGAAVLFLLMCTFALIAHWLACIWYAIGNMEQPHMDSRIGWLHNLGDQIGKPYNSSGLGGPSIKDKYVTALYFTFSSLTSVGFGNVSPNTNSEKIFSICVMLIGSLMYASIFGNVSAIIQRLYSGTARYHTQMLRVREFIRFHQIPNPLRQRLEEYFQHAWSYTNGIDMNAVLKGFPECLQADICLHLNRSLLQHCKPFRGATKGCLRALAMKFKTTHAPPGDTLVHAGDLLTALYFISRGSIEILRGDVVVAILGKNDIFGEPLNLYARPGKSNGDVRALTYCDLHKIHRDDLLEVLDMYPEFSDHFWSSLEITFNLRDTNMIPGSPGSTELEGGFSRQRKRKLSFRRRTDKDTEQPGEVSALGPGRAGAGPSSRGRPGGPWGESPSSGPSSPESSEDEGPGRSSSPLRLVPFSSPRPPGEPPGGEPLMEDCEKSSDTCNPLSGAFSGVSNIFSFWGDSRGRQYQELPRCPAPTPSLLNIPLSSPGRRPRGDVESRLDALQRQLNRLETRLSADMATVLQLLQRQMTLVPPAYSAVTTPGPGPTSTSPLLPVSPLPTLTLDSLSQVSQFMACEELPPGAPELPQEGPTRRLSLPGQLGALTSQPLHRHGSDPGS
Sequence of Voltage-gated inwardly rectifying potassium channel KCNH2 (Q12809 whole entry): as above
Sequence of Poly [ADP-ribose] polymerase 2 (Q9UGN5 whole entry): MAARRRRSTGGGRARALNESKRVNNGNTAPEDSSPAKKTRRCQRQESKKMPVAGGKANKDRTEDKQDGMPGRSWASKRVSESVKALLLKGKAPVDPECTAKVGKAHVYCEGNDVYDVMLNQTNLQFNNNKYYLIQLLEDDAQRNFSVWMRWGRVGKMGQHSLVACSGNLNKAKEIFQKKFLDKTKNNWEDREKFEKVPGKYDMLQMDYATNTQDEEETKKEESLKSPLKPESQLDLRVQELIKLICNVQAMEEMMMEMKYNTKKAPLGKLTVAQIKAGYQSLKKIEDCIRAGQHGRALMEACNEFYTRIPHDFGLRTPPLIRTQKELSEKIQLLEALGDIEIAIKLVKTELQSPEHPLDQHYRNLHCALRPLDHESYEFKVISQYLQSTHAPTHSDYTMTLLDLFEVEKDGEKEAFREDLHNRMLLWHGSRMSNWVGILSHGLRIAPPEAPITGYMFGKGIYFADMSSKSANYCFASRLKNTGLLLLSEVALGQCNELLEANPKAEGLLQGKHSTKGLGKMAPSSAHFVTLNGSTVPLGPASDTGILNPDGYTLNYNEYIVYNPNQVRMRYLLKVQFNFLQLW
Sequence of Poly [ADP-ribose] polymerase 1 (P09874 whole entry): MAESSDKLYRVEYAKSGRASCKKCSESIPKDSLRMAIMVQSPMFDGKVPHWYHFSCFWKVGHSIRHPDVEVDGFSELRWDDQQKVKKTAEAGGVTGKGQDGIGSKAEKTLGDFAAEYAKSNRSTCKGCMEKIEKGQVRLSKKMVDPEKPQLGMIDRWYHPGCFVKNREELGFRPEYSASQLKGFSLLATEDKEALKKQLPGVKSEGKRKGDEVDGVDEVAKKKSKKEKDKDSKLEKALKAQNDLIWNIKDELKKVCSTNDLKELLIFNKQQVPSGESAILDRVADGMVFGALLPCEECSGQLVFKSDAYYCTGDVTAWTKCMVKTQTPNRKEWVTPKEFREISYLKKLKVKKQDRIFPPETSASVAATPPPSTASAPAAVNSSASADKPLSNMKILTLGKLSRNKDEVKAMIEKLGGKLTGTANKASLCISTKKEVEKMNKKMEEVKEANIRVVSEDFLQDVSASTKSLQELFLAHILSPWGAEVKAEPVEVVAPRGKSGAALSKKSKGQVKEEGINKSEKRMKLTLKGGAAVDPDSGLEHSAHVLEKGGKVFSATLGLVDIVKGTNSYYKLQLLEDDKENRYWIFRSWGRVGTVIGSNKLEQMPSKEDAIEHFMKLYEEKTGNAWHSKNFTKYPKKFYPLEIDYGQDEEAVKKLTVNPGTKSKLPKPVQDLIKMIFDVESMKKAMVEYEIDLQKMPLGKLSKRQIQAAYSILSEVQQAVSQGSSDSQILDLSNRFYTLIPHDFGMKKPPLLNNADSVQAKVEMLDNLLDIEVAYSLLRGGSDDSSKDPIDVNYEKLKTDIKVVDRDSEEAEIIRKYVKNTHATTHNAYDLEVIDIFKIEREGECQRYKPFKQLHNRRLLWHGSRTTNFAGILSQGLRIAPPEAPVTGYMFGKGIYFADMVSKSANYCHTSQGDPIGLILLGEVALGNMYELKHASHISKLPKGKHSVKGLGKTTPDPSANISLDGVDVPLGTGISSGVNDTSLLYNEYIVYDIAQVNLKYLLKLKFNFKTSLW

CNC(=O)c1ccc(N2CCN(Cc3ccc4nc(C)c(=O)[nH]c4c3F)CC2)c(C)n1
IC50 [1]: 7 nM
efflux ratio (MDR1 (P-gp), BCRP): 1.6
Kp uu [2]: 0.19
IC50 (hERG (KCNH2)): > 40000 nM
solubility [3]: 11 µM (≈ 4.67 µg/mL)
logD [4]: 2.2
microsomal CLint [5]: < 3 µL/min/mg

CCc1nc2ccc(CN3CCN(c4ccc(F)nc4)CC3)cc2[nH]c1=O
IC50 [6]: 9 nM
IC50 [7]: 46000 nM
IC50 [1]: 66 nM
efflux ratio (MDR1 (P-gp), BCRP): 0.5
IC50 [8]: > 40000 nM
solubility [3]: 9 µM (≈ 3.31 µg/mL)
logD [4]: 2.6
microsomal CLint [5]: < 3 µL/min/mg

CNC(=O)c1ccc(N2CCN(Cc3ccc4nc(C)c(=O)[nH]c4c3)CC2)c(F)n1
IC50 [6]: 8 nM
IC50 [7]: 26000 nM
efflux ratio (MDR1 (P-gp), BCRP): 3.6
solubility [3]: 26 µM (≈ 10.7 µg/mL)
logD [4]: 2.1
microsomal CLint [5]: < 3 µL/min/mg

CCc1cc2ccc(CN3CCN(c4cnc(C(=O)NC)cc4C)CC3)cc2[nH]c1=O
IC50 [6]: 6 nM
IC50 [7]: 6300 nM
IC50 [1]: 1140 nM
IC50 [8]: 8000 nM
solubility [3]: 3 µM (≈ 1.26 µg/mL)
logD [4]: 3.3
microsomal CLint [5]: 33 µL/min/mg

CNC(=O)c1ccc(N2CCN(Cc3ccc4c5c(c(=O)[nH]c4c3)COCC5)CC2)cn1
IC50 [6]: 4 nM
IC50 [7]: 690 nM
efflux ratio (MDR1 (P-gp), BCRP): 6.8
IC50 [8]: > 40000 nM
solubility [3]: 1 µM (≈ 0.434 µg/mL)
logD [4]: 2
microsomal CLint [5]: 17 µL/min/mg

CNC(=O)c1ccc(N2CCN(Cc3ccc4nc(C)c(=O)[nH]c4c3F)CC2)c(F)n1 [AZD-9574]
IC50 [1]: 16 nM
Kp uu [2]: 0.31
IC50 (hERG (KCNH2)): > 40000 nM
solubility [3]: 19 µM (≈ 8.14 µg/mL)
logD [4]: 1.9
microsomal CLint [5]: < 3 µL/min/mg
Fu [9]: 20%
Vdss [10]: 2.7 L/kg
half-life [11]: 4 h
bioavailability [12]: 116%
Fu [13]: 13%
Vdss [14]: 2.3 L/kg
half-life [15]: 6.3 h
bioavailability [16]: 50%
Fu [17]: 25%
Vdss [18]: 1.1 L/kg
half-life [19]: 12 h
bioavailability [20]: 91%
inhibition in vivo at 3 mg/kg (DLD-1 [21]): 43%
inhibition in vivo at 30 mg/kg (DLD-1 [22]): 69%
inhibition in vivo at 10 mg/kg (DLD-1 [23]): 73%
Fu [24]: 16%
Vdss [25]: 1.7 L/kg
half-life [26]: 10.5 h
bioavailability [27]: 95%
Activity [28]: Non-toxic
Activity [29]: Toxic

NC(=O)c1cccc2cn(-c3ccc([C@@H]4CCCNC4)cc3)nc12 [NIRAPARIB]
IC50 [1]: 167 nM
Kp uu [2]: < 0.1

O=C(c1cc(Cc2n[nH]c(=O)c3ccccc23)ccc1F)N1CCN(C(=O)C2CC2)CC1 [OLAPARIB]
Kp uu [2]: < 0.1
inhibition in vivo at 100 mg/kg (DLD-1 [30]): 40%

C[C@]12CCCN1CC1=NNC(=O)c3cc(F)cc4[nH]c2c1c34 [PAMIPARIB]
IC50 [7]: 6 nM
IC50 [1]: 7 nM
Kp uu [2]: 0.1

CNCc1ccc(-c2[nH]c3cc(F)cc4c3c2CCNC4=O)cc1 [RUCAPARIB]
IC50 [1]: 39 nM
Kp uu [2]: < 0.1

CCc1cc2ncc(CN3CCN(c4ccc(C(=O)NC)nc4)CC3)cc2[nH]c1=O [SARUPARIB]
Kp uu [2]: < 0.1
IC50 (hERG (KCNH2)): > 40000 nM
microsomal CLint [5]: < 6 µL/min/mg

Cn1ncnc1[C@H]1c2n[nH]c(=O)c3cc(F)cc(c23)N[C@@H]1c1ccc(F)cc1 [TALAZOPARIB]
Kp uu [2]: < 0.1

C[C@]1(c2nc3c(C(N)=O)cccc3[nH]2)CCCN1 [VELIPARIB]
IC50 [1]: 1300 nM
Kp uu [2]: 0.19
